The numbers were not newly measured in patent publication US6153738A (priority 1999, dated 2000), which cites them from elsewhere.

This series has as its system Swiss Webster mice. The conditions noted are these: mouse, in vivo.

With GCX1 X2 EPWC [contryphan-R], the “symptomatology after intracranial injection into mice” value was “stiff-tail syndrome”.
